The values that follow come from US7109225B2, “Substituted oxazole derivatives” (Hofmann-la Roche Inc., priority 2002, dated 2006).

The structures appear in SMILES notation.

With `CCCOC(Cc1ccc(OCCCc2nc(C(C)(C)C)oc2C)c2ccccc12)C(=O)O` (racemic) [Example 57, [rac]-3-{4-[3-(2-tert-Butyl-5-methyl-oxazol-4-yl)-propoxy]-naphthalen-1-yl}-2-propoxy-propionic acid], the melting point lay in the range of 140 to 141 °C.
The molecule `CCCOC(Cc1ccc(OCCc2nc(C(C)(C)C)oc2C)c2ccccc12)C(=O)O` (stereo not drawn) [Example 14, 3-{4-[2-(2-tert-Butyl-5-methyl-oxazol-4-yl)-ethoxy]-naphthalen-1-yl}-2-propoxy-propionic acid] showed a melting point of 135 to 137 °C.
Regarding `C=CCCO[C@@H](Cc1ccc(OCCc2nc(C(C)(C)C)oc2C)c2ccsc12)C(=O)O` [Example 7, (S)-2-But-3-enyloxy-3-{4-[2-(2-tert-butyl-5-methyl-oxazol-4-yl)-ethoxy]-benzo[b]thiophen-7-yl}-propionic acid], the melting point was 70 to 71 °C.
Molecule `CCO[C@@H](Cc1ccc(OCCc2nc(C(C)(C)C)oc2C)c2ccsc12)C(=O)O` [Example 6, (S)-3-{4-[2-(2-tert-Butyl-5-methyl-oxazol-4-yl)-ethoxy]-benzo[b]thiophen-7-yl}-2-ethoxy-propionic acid] yielded a melting point of 155 to 156 °C.
The figure for `Cc1oc(C(C)(C)C)nc1CCCOc1ccc(CC(OC(C)C)C(=O)O)c2ccccc12` (racemic) [Example 55, [rac]-3-{4-[3-(2-tert-Butyl-5-methyl-oxazol-4-yl)-propoxy]-naphthalen-1-yl}-2-isopropoxy-propionic acid] is 118 to 119 °C; for `CCOC(Cc1ccc(OCCCc2nc(CC)oc2C)c2ccccc12)C(=O)O` (racemic) [Example 65, [rac]-2-Ethoxy-3-{4-[3-(2-ethyl-5-methyl-oxazol-4-yl)-propoxy]-naphthalen-1-yl}-propionic acid] it is 113 to 117 °C.
`CCOC(Cc1ccc(OCCCc2nc(C(CC)CC)oc2C)c2ccsc12)C(=O)O` (racemic) [Example 67, [rac]-2-Ethoxy-3-(4-{3-[2-(1-ethyl-propyl)-5-methyl-oxazol-4-yl]-propoxy}-benzo[b]thiophen-7-yl)-propionic acid] came in with a melting point of 54 to 56 °C.
The figure for `Cc1oc(C(C)C)nc1CCCOc1ccc(CC(OC(C)C)C(=O)O)c2sccc12` (racemic) [Example 62, [rac]-2-Isopropoxy-3-{4-[3-(2-isopropyl-5-methyl-oxazol-4-yl)-propoxy]-benzo[b]thiophen-7-yl}-propionic acid] is 125 to 126 °C; for `CCOC(Cc1cc(C)c(OCCc2nc(C(C)(C)C)oc2C)c(C)c1)C(=O)O` (stereo not drawn) [Example 16, 3-{4-[2-(2-tert-Butyl-5-methyl-oxazol-4-yl)-ethoxy]-3,5-dimethyl-phenyl}-2-ethoxy-propionic acid] it is 104 to 106 °C.
The molecule `CCOC(Cc1ccc(OCc2nc(C(C)(C)C)oc2C)c2ccsc12)C(=O)O` (stereo not drawn) [Example 19, 3-[4-(2-tert-Butyl-5-methyl-oxazol-4-ylmethoxy)-benzo[b]thiophen-7-yl]-2-ethoxy-propionic acid] had a melting point of 179 to 180 °C.
In turn, `CCOC(Cc1ccc(OCc2nc(C(C)(C)C)oc2C)c(C)c1)C(=O)O` (stereo not drawn) [Example 21, 3-[4-(2-tert-Butyl-5-methyl-oxazol-4-ylmethoxy)-3-methyl-phenyl]-2-ethoxy-propionic acid] had a melting point of 95 to 97 °C.
The molecule `CCOC(Cc1ccc(OCCCc2nc(C(C)(C)C)oc2C)c2ccsc12)C(=O)O` (racemic) [Example 54, [rac]-3-{4-[3-(2-tert-Butyl-5-methyl-oxazol-4-yl)-propoxy]-benzo[b]thiophen-7-yl}-2-ethoxy-propionic acid] came in with a melting point of 125 to 126 °C.
Molecule `CCOC(Cc1ccc(OCCc2nc(C(CC)CC)oc2C)c2ccsc12)C(=O)O` (racemic) [Example 68, [rac]-2-Ethoxy-3-(4-{2-[2-(1-ethyl-propyl)-5-methyl-oxazol-4-yl]-ethoxy}-benzo[b]thiophen-7-yl)-propionic acid] yielded a melting point of 120 to 121 °C.
The same measure for `CCCOC(Cc1ccc(OCc2nc(C(C)(C)C)oc2C)c2ccccc12)C(=O)O` (stereo not drawn) [Example 24, 3-[4-(2-tert-Butyl-5-methyl-oxazol-4-ylmethoxy)-naphthalen-1-yl]-2-propoxy-propionic acid]: 169 to 170 °C; for `CCOC(Cc1ccc(OCCc2nc(CC)oc2C)c2ccsc12)C(=O)O` (racemic) [Example 66, [rac]-2-Ethoxy-3-{4-[2-(2-ethyl-5-methyl-oxazol-4-yl)-ethoxy]-benzo[b]thiophen-7-yl}-propionic acid]: 84 to 85 °C; for `CCOC(Cc1ccc(OCc2nc(C3CC3)oc2C)c2ccsc12)C(=O)O` (stereo not drawn) [Example 43, 3-[4-(2-Cyclopropyl-5-methyl-oxazol-4-ylmethoxy)-benzo[b]thiophen-7-yl]-2-ethoxy-propionic acid]: 153 to 154 °C.
The same measure for `CCOC(Cc1ccc(OCCCc2nc(C(C)(C)C)oc2CC)c2ccsc12)C(=O)O` (racemic) [Example 53, [rac]-3-{4-[3-(2-tert-Butyl-5-ethyl-oxazol-4-yl)-propoxy]-benzo[b]thiophen-7-yl}-2-ethoxy-propionic acid]: 94 to 95 °C; for `CCCOC(Cc1ccc(OCc2nc(C3CC3)oc2C)c2ccsc12)C(=O)O` (stereo not drawn) [Example 41, 3-[4-(2-Cyclopropyl-5-methyl-oxazol-4-ylmethoxy)-benzo[b]thiophen-7-yl]-2-propoxy-propionic acid]: 88 to 89 °C.
In turn, `Cc1oc(C2CC2)nc1COc1ccc(CC(OC(C)C)C(=O)O)c2ccccc12` (stereo not drawn) [Example 40, 3-[4-(2-Cyclopropyl-5-methyl-oxazol-4-ylmethoxy)-naphthalen-1-yl]-2-isopropoxy-propionic acid] came in with a melting point of 129 to 130 °C.
The same measure for `CCOC(Cc1ccc(OCc2nc(C3CC3)oc2C)c2ccccc12)C(=O)O` (stereo not drawn) [Example 38, 3-[4-(2-Cyclopropyl-5-methyl-oxazol-4-ylmethoxy)-naphthalen-1-yl]-2-ethoxy-propionic acid]: 166 to 168 °C; for `COC(Cc1cc(C)c(OCCc2nc(C(C)(C)C)oc2C)c(C)c1)C(=O)O` (stereo not drawn) [Example 15, 3-{4-[2-(2-tert-Butyl-5-methyl-oxazol-4-yl)-ethoxy]-3,5-dimethyl-phenyl}-2-methoxy-propionic acid]: 78 to 80 °C; for `CCOC(Cc1ccc(OCCc2nc(C(C)(C)C)oc2C)c2ccsc12)C(=O)O` (stereo not drawn) [Example 9, 3-{4-[2-(2-tert-Butyl-5-methyl-oxazol-4-yl)-ethoxy]-benzo[b]thiophen-7-yl}-2-ethoxy-propionic acid]: 152 to 153 °C.
The same measure for `Cc1oc(C2CC2)nc1COc1ccc(CC(OC(C)C)C(=O)O)c2sccc12` (stereo not drawn) [Example 42, 3-[4-(2-Cyclopropyl-5-methyl-oxazol-4-ylmethoxy)-benzo[b]thiophen-7-yl]-2-isopropoxy-propionic acid]: 71 to 72 °C; for `COC(Cc1ccc(OCCc2nc(C(C)(C)C)oc2C)c2ccccc12)C(=O)O` (stereo not drawn) [Example 13, 3-{4-[2-(2-tert-Butyl-5-methyl-oxazol-4-yl)-ethoxy]-naphthalen-1-yl}-2-methoxy-propionic acid]: 141 to 143 °C.
In turn, `COC(Cc1ccc(OCCc2nc(C(C)(C)C)oc2C)c2ccsc12)C(=O)O` (stereo not drawn) [Example 10, 3-{4-[2-(2-tert-Butyl-5-methyl-oxazol-4-yl)-ethoxy]-benzo[b]thiophen-7-yl}-2-methoxy-propionic acid] came in with a melting point of 163 to 165 °C.
The figure for `CCOC(Cc1ccc(OCCCc2nc(C(C)(C)C)oc2C)c2ccccc12)C(=O)O` (racemic) [Example 56, [rac]-3-{4-[3-(2-tert-Butyl-5-methyl-oxazol-4-yl)-propoxy]-naphthalen-1-yl}-2-ethoxy-propionic acid] is 138 to 140 °C; for `Cc1oc(C(C)(C)C)nc1COc1ccc(CC(OC(C)C)C(=O)O)c2sccc12` (stereo not drawn) [Example 23, 3-[4-(2-tert-Butyl-5-methyl-oxazol-4-ylmethoxy)-benzo[b]thiophen-7-yl]-2-isopropoxy-propionic acid] it is 166 to 167 °C.
The same measure for `CCCOC(Cc1ccc(OCCc2nc(C3CCCCC3)oc2C)c2ccccc12)C(=O)O` (stereo not drawn) [Example 28, 3-{4-[2-(2-Cyclohexyl-5-methyl-oxazol-4-yl)-ethoxy]-naphthalen-1-yl}-2-propoxy-propionic acid]: 106 to 107 °C.
Molecule `COC(Cc1ccc(OCCCc2nc(C(C)(C)C)oc2C)c2ccsc12)C(=O)O` (racemic) [Example 58, [rac]-3-{4-[3-(2-tert-Butyl-5-methyl-oxazol-4-yl)-propoxy]-benzo[b]thiophen-7-yl}-2-methoxy-propionic acid] came in with a melting point of 110 to 113 °C.
The figure for `CCOC(Cc1ccc(OCc2nc(C(C)(C)C)oc2C)c2ccccc12)C(=O)O` (stereo not drawn) [Example 22, 3-[4-(2-tert-Butyl-5-methyl-oxazol-4-ylmethoxy)-naphthalen-1-yl]-2-ethoxy-propionic acid] is 185 to 186 °C.
